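Cultured in 96-well plates, cells were exposed to test compound for 48 hours across five concentrations. The concentration for 50% growth inhibition is given as GI50. TGI: concentration producing complete growth inhibition.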
Columns and labels:
Experiment in all cases: inhibition of tumour cell growth, NCI panel, 48 h
SW-620 colon = test system: SW-620 colon
SF-539 CNS = test system: SF-539 CNS
NCI-H522 lung = test system: NCI-H522 lung
MDA-MB-435 = test system: MDA-MB-435
U251 CNS = test system: U251 CNS
OVCAR-4 ovarian = test system: OVCAR-4 ovarian
NCI/ADR-RES ovarian = test system: NCI/ADR-RES ovarian
KM12 colon = test system: KM12 colon
MALME-3M melanoma = test system: MALME-3M melanoma
HL-60(TB) leukemia = test system: HL-60(TB) leukemia
NCI-H226 lung = test system: NCI-H226 lung
MCF7 breast = test system: MCF7 breast
A549 NSCLC = test system: A549 NSCLC
SNB-19 CNS = test system: SNB-19 CNS
HOP-92 NSCLC = test system: HOP-92 NSCLC
NCI-H460 lung = test system: NCI-H460 lung
RPMI-8226 leukemia = test system: RPMI-8226 leukemia
IGROV1 ovarian = test system: IGROV1 ovarian
CAKI-1 renal = test system: CAKI-1 renal
DU-145 prostate = test system: DU-145 prostate
A498 renal = test system: A498 renal
SK-MEL-5 melanoma = test system: SK-MEL-5 melanoma
HCT-116 colon = test system: HCT-116 colon
ACHN renal = test system: ACHN renal
CCRF-CEM leukemia = test system: CCRF-CEM leukemia
SK-MEL-2 melanoma = test system: SK-MEL-2 melanoma
OVCAR-8 ovarian = test system: OVCAR-8 ovarian
TK-10 renal = test system: TK-10 renal
HCT-15 colon = test system: HCT-15 colon
HT29 colon = test system: HT29 colon
SNB-75 CNS = test system: SNB-75 CNS
RXF 393 renal = test system: RXF 393 renal
SK-OV-3 ovarian = test system: SK-OV-3 ovarian
LOX IMVI melanoma = test system: LOX IMVI melanoma
OVCAR-5 ovarian = test system: OVCAR-5 ovarian
HOP-62 NSCLC = test system: HOP-62 NSCLC
UO-31 renal = test system: UO-31 renal
M14 melanoma = test system: M14 melanoma
786-0 renal = test system: 786-0 renal
SF-268 CNS = test system: SF-268 CNS
SF-295 CNS = test system: SF-295 CNS
HCC-2998 colon = test system: HCC-2998 colon
UACC-257 melanoma = test system: UACC-257 melanoma
BT-549 breast = test system: BT-549 breast
SN12C renal = test system: SN12C renal
PC-3 prostate = test system: PC-3 prostate
MOLT-4 leukemia = test system: MOLT-4 leukemia
MDA-MB-231 breast = test system: MDA-MB-231 breast
UACC-62 melanoma = test system: UACC-62 melanoma
OVCAR-3 ovarian = test system: OVCAR-3 ovarian
NCI-H23 lung = test system: NCI-H23 lung
HS 578T breast = test system: HS 578T breast
K-562 leukemia = test system: K-562 leukemia
COLO 205 colon = test system: COLO 205 colon
SR leukemia = test system: SR leukemia
SK-MEL-28 melanoma = test system: SK-MEL-28 melanoma
T-47D breast = test system: T-47D breast

OCc1ccc(N2CCc3ccc(F)cc3C2)cc1Cl
GI50 (SW-620 colon): 0.18 µM | TGI (SW-620 colon): 11.2 µM | GI50 (SF-539 CNS): 15.9 µM | TGI (SF-539 CNS): 31 µM | GI50 (NCI-H522 lung): 12.6 µM | TGI (NCI-H522 lung): 26.2 µM | GI50 (MDA-MB-435): 8.69 µM | TGI (MDA-MB-435): 22 µM | GI50 (U251 CNS): 0.124 µM | TGI (U251 CNS): 8.57 µM | GI50 (OVCAR-4 ovarian): 0.0799 µM | TGI (OVCAR-4 ovarian): 0.772 µM | GI50 (NCI/ADR-RES ovarian): 5.22 µM | TGI (NCI/ADR-RES ovarian): 25.6 µM | GI50 (KM12 colon): 10.5 µM | TGI (KM12 colon): 26 µM | GI50 (MALME-3M melanoma): 12.1 µM | TGI (MALME-3M melanoma): 26.9 µM | GI50 (HL-60(TB) leukemia): 1.12 µM | TGI (HL-60(TB) leukemia): 14.5 µM | GI50 (NCI-H226 lung): 0.0267 µM | TGI (NCI-H226 lung): 0.114 µM | GI50 (MCF7 breast): 0.137 µM | TGI (MCF7 breast): 11 µM | GI50 (A549 NSCLC): 0.516 µM | TGI (A549 NSCLC): 19.8 µM | GI50 (SNB-19 CNS): 12.4 µM | TGI (SNB-19 CNS): 27 µM | GI50 (HOP-92 NSCLC): 0.146 µM | TGI (HOP-92 NSCLC): 0.889 µM | GI50 (NCI-H460 lung): 0.0872 µM | TGI (NCI-H460 lung): 0.532 µM | GI50 (RPMI-8226 leukemia): 0.263 µM | TGI (RPMI-8226 leukemia): 10.7 µM | GI50 (IGROV1 ovarian): 0.0202 µM | TGI (IGROV1 ovarian): 0.124 µM | GI50 (CAKI-1 renal): 1.01 µM | TGI (CAKI-1 renal): 9.62 µM | GI50 (DU-145 prostate): 7.06 µM | TGI (DU-145 prostate): 21.2 µM | GI50 (A498 renal): 0.0173 µM | TGI (A498 renal): 0.0751 µM | GI50 (SK-MEL-5 melanoma): 0.856 µM | TGI (SK-MEL-5 melanoma): 20 µM | GI50 (HCT-116 colon): 0.0267 µM | TGI (HCT-116 colon): 11.1 µM | GI50 (ACHN renal): 10.4 µM | TGI (ACHN renal): 23 µM | GI50 (CCRF-CEM leukemia): 2.6 µM | TGI (CCRF-CEM leukemia): 9.97 µM | GI50 (SK-MEL-2 melanoma): 0.226 µM | TGI (SK-MEL-2 melanoma): 8.79 µM | GI50 (OVCAR-8 ovarian): 7.05 µM | TGI (OVCAR-8 ovarian): 20.7 µM | GI50 (TK-10 renal): 0.0178 µM | TGI (TK-10 renal): 0.0693 µM | GI50 (HCT-15 colon): 2.82 µM | TGI (HCT-15 colon): 18.8 µM | GI50 (HT29 colon): 0.229 µM | TGI (HT29 colon): 6.61 µM | GI50 (SNB-75 CNS): 11.5 µM | TGI (SNB-75 CNS): 25.3 µM | GI50 (RXF 393 renal): 0.373 µM | TGI (RXF 393 renal): 12.1 µM | GI50 (SK-OV-3 ovarian): 2.71 µM | TGI (SK-OV-3 ovarian): 13.6 µM | GI50 (LOX IMVI melanoma): 3.73 µM | TGI (LOX IMVI melanoma): 12.3 µM | GI50 (OVCAR-5 ovarian): 0.0301 µM | TGI (OVCAR-5 ovarian): 0.183 µM | GI50 (HOP-62 NSCLC): 0.29 µM | TGI (HOP-62 NSCLC): 15.5 µM | GI50 (UO-31 renal): 1.52 µM | TGI (UO-31 renal): 17.3 µM | GI50 (M14 melanoma): 14.5 µM | TGI (M14 melanoma): 30 µM | GI50 (786-0 renal): 3.11 µM | TGI (786-0 renal): 23.8 µM | GI50 (SF-268 CNS): 13.1 µM | TGI (SF-268 CNS): 27 µM | GI50 (SF-295 CNS): 0.0728 µM | TGI (SF-295 CNS): 1.96 µM | GI50 (HCC-2998 colon): 1.7 µM | TGI (HCC-2998 colon): 14.4 µM | GI50 (UACC-257 melanoma): 0.0279 µM | TGI (UACC-257 melanoma): 0.101 µM | GI50 (BT-549 breast): 15.2 µM | TGI (BT-549 breast): 29.3 µM | GI50 (SN12C renal): 8.22 µM | TGI (SN12C renal): 22.9 µM | GI50 (PC-3 prostate): 12.7 µM | TGI (PC-3 prostate): 27.4 µM | GI50 (MOLT-4 leukemia): 4.48 µM | TGI (MOLT-4 leukemia): 30.5 µM | GI50 (MDA-MB-231 breast): 11.7 µM | TGI (MDA-MB-231 breast): 24.9 µM | GI50 (UACC-62 melanoma): 0.0405 µM | TGI (UACC-62 melanoma): 0.248 µM | GI50 (OVCAR-3 ovarian): 0.0605 µM | TGI (OVCAR-3 ovarian): 0.325 µM | GI50 (NCI-H23 lung): 1.86 µM | TGI (NCI-H23 lung): 21 µM | GI50 (HS 578T breast): 15.8 µM | TGI (HS 578T breast): 48.4 µM | GI50 (K-562 leukemia): 0.159 µM | TGI (K-562 leukemia): 19.6 µM | GI50 (COLO 205 colon): 0.121 µM | TGI (COLO 205 colon): 0.36 µM | GI50 (SR leukemia): 2.9 µM | TGI (SR leukemia): 17.3 µM | GI50 (SK-MEL-28 melanoma): 13.1 µM | TGI (SK-MEL-28 melanoma): 26.1 µM | GI50 (T-47D breast): 0.101 µM | TGI (T-47D breast): 0.499 µM
